These results are taken from ChEMBL document CHEMBL1132837, “3-(4-Piperidinyl)- and 3-(8-aza-bicyclo[3.2.1]oct-3-yl)-2-phenyl-1H-indoles as bioavailable h5-HT2A antagonists” (Bioorg Med Chem Lett, 2000).

What is called Ki is the dissociation constant of the complex between target and ligand, obtained from inhibition or displacement.

The target of data set [1] is Serotonin 2 receptors; 5-HT2a & 5-HT2c (Homo sapiens) (UniProt P28223+P28335). Description: Selectivity as ratio of Ki against human 5-HT2C and 5-HT2A receptors. The class given is protein assay.
Sequence of Serotonin 2 receptors; 5-HT2a & 5-HT2c (Homo sapiens) (P28223 whole entry, looked up): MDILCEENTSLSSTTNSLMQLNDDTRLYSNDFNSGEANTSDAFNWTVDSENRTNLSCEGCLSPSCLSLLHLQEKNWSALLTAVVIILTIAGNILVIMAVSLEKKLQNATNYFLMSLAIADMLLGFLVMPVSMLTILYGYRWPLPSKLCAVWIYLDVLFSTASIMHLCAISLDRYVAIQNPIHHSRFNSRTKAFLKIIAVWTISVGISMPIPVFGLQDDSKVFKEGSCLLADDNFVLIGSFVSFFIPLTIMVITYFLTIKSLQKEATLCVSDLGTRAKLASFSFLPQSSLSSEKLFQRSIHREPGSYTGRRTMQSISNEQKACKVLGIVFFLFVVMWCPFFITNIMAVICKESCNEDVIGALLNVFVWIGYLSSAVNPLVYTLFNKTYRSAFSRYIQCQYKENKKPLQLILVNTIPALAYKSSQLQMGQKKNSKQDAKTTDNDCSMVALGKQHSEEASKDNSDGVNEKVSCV
Sequence of Serotonin 2 receptors; 5-HT2a & 5-HT2c (Homo sapiens) (P28335 whole entry, looked up): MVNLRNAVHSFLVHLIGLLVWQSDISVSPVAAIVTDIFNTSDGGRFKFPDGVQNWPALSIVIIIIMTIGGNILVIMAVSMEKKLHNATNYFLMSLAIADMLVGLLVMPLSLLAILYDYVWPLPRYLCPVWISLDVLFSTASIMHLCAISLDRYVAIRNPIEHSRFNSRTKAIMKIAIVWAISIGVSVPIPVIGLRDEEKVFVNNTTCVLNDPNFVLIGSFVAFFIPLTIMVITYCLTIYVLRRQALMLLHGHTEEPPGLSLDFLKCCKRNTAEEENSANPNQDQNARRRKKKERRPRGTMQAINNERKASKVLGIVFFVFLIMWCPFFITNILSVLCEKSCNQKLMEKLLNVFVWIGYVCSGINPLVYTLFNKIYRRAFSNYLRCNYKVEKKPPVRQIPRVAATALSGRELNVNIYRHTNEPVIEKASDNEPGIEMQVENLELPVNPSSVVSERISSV
Data set [2] has as its target Dopamine D2 receptor and serotonin 2a receptor (Homo sapiens) (UniProt P14416+P28223). The data set is described as follows: Selectivity as ratio of Ki against human dopamine D2 and 5-HT2A receptors. In kind it is protein assay.
Data set [3] addresses 5-hydroxytryptamine receptor 2A (Homo sapiens, UniProt P28223). Description: Displacement of [3H]ketanserin from human 5-hydroxytryptamine 2A receptor expressed in CHO cells. The class given is cell-based.
Data set [4] in a line: Oral bioavailability in rat. In kind it is ADME, organism-based. Conditions: in vivo.
A short description of data set [5]: Oral bioavailability was determined in dogs. The note with it: dog, in vivo, read-out: Bioavailabiility. The class given is ADME, organism-based, Canis lupus familiaris.

Sequence of 5-hydroxytryptamine receptor 2A (P28223 whole entry): as the sequence (P28223 whole entry, looked up) above
Sequence of Dopamine D2 receptor and serotonin 2a receptor (Homo sapiens) (P14416 whole entry, looked up): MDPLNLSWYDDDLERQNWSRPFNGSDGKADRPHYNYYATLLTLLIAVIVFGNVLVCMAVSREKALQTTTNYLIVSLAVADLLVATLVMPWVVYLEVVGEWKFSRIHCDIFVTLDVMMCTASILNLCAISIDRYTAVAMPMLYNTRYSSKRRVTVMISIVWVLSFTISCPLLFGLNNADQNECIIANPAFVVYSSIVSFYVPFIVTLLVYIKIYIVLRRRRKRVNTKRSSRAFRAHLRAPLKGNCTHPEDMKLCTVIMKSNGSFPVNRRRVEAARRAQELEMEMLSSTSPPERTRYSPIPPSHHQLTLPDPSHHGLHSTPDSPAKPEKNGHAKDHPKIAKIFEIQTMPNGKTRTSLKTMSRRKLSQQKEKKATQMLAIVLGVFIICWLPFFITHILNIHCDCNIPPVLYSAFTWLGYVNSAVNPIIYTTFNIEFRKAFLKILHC
Sequence of Dopamine D2 receptor and serotonin 2a receptor (Homo sapiens) (P28223 whole entry, looked up): as the sequence (P28223 whole entry, looked up) above

As for `c1ccc(CCN2C3CCC2CC(N2CCC(c4c(-c5ccccc5)[nH]c5ccccc45)CC2)C3)cc1` (stereo in doubt; 17) [listing 1 of 2 here], the results for the Ratio in data set [1] and in data set [2] were 860 and 1080, respectively.
Turning to `c1ccc(CN2CCC(c3c(-c4ccccc4)[nH]c4ccccc34)CC2)cc1`, the Ratio in data set [1] was 30; in data set [2], 2. In addition, in data set [3], affinity was put at a Ki of 28 nM.
Turning to `CN1[C@@H]2CC[C@H]1C[C@H](N1CCC(c3c(-c4ccccc4)[nH]c4ccccc34)CC1)C2` (stereo in doubt; 13) [listing 1 of 2 here], the Ratio in data set [1] stood at 70; in data set [2] it was 1190.
As to `c1ccc(-c2[nH]c3ccccc3c2C2CCNCC2)cc1`, the figures for the Ratio in data set [1] and in data set [2] were 30 and 130, respectively. This molecule yielded a Ki in data set [3] of 12.1 nM.
On to `O=C1NCCN1CCN1CCC(c2c(-c3ccccc3)[nH]c3ccccc23)CC1`, for which the Ratio in data set [1] was determined as 160; in data set [2] it was 250. The molecule also yielded a Ki in data set [3] of 7.3 nM. For the same molecule, the bioavailability came to 40% in data set [4] and 33% in data set [5].
In the case of `CN1CCC(c2c(-c3ccccc3)[nH]c3ccccc23)CC1`, the Ratio is 30 in data set [1] and 205 in data set [2]. This molecule also had a Ki in data set [3] of 7.8 nM.
In turn, `c1ccc(CCN2C3CCC2CC(N2CCC(c4c(-c5ccccc5)[nH]c5ccccc45)CC2)C3)cc1` (stereo in doubt; 17) [listing 2 of 2 here] had a Ki in data set [3] of 1.2 nM. Also, the bioavailability in data set [4] was 18%.
`c1ccc(-c2[nH]c3ccccc3c2CCN2CCCCC2)cc1`: the Ratio in data set [1] was 100; in data set [2], 330. Further, in data set [4], the bioavailability was less than 5%.
In the case of `c1ccc(CCN2C3CCC2CC(N2CCC(c4c(-c5ccccc5)[nH]c5ccccc45)CC2)C3)cc1` (stereo in doubt; 18) [listing 1 of 2 here], the Ratio in data set [1] amounted to 60; in data set [2], 170.
The molecule `CN1[C@@H]2CC[C@H]1C[C@H](N1CCC(c3c(-c4ccccc4)[nH]c4ccccc34)CC1)C2` (stereo in doubt; 13) [listing 2 of 2 here] displayed an inhibition constant Ki in data set [3] of 1.1 nM.
In the case of `c1ccc(CCN2CCC(c3c(-c4ccccc4)[nH]c4ccccc34)CC2)cc1`, the Ratio came to 160 in data set [1] and 690 in data set [2]. The Ki in data set [3] worked out at 0.5 nM. The molecule also had a bioavailability in data set [4] of 12%.
Take `c1ccc(CCN2C3CCC2CC(N2CCC(c4c(-c5ccccc5)[nH]c5ccccc45)CC2)C3)cc1` (stereo in doubt; 18) [listing 2 of 2 here]: the Ki in data set [3] was 2.6 nM.
Consider `c1ccc(-c2[nH]c3ccccc3c2C2CC3CCC(C2)N3)cc1` (configuration not stated), for which the values for the Ratio in data set [1] and in data set [2] were 200 and 1060, respectively. The molecule also gave an inhibition constant Ki in data set [3] of 1.8 nM.
In turn, `CN1[C@@H]2CC[C@H]1C[C@H](N1CCC(c3c(-c4ccccc4)[nH]c4ccccc34)CC1)C2` (stereo in doubt; 15) [listing 1 of 2 here] gave a Ki in data set [3] of 1.5 nM.
`CN1[C@@H]2CC[C@H]1C[C@H](N1CCC(c3c(-c4ccccc4)[nH]c4ccccc34)CC1)C2` (stereo in doubt; 15) [listing 2 of 2 here]: the Ratio was found to be 45 in data set [1] and 960 in data set [2].
